Test results published in ChEMBL document CHEMBL1909046, “DrugMatrix in vitro pharmacology data”.
pIC50, pKi: −log10 of the molar value.

Experiments:
Insulin receptor = Insulin receptor (Rattus norvegicus, UniProt P15127); assay type: cell membranes, Wistar, Liver, Membrane; note: in other assays of this panel Not Active means under 50% inhibition at 10 µM
[1] = DRUGMATRIX: Potassium Channel [KATP] radioligand binding (ligand: [3H] Glyburide); assay type: cell membranes, Membrane; conditions: hit-t15; Not Active = under 50% inhibition at 10 µM
Substance-P receptor = Substance-P receptor (Homo sapiens, UniProt P25103); assay type: cell membranes, CHO, Membrane; conditions: cho; note: in other assays of this panel Not Active means under 50% inhibition at 10 µM
[2] = target: Matrix metalloproteinase-9 (Homo sapiens, UniProt P14780); assay type: cell-based;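 note: inhibition of isolated MMP-9 enzyme activity toward a synthetic peptide substrate, from the DrugMatrix protease screening panel; in other assays of this panel Not Active means under 50% inhibition at 10 µM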
[3] = target: T1, Neuropeptide Y receptor type 2 (Homo sapiens, UniProt P49146); assay type: cell membranes, Membrane; conditions: kan-ts; note: in other assays of this panel Not Active means under 50% inhibition at 10 µM
T1 sequence (P49146 whole entry): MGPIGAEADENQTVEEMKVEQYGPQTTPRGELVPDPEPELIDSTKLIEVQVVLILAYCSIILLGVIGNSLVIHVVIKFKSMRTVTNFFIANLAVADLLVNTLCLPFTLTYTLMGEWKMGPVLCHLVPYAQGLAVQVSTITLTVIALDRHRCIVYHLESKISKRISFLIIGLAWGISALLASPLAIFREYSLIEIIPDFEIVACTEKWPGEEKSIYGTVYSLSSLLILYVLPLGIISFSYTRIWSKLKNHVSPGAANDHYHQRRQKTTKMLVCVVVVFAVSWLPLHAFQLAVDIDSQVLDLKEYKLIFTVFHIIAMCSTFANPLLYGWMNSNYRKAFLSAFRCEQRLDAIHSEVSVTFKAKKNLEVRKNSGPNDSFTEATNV

[4] = DRUGMATRIX: Phosphodiesterase PDE4 enzyme inhibition (substrate: [3H]cAMP + cAMP); conditions: u-937; Not Active = under 50% inhibition at 10 µM
Acetylcholinesterase = Acetylcholinesterase (Homo sapiens, UniProt P22303); experiment: DRUGMATRIX: Acetylcholinesterase enzyme inhibition (substrate: acetylthiocholine); assay type: cell-based, HEK293; conditions: hek293; Not Active = under 50% inhibition at 10 µM
[5] = DRUGMATRIX: beta-Lactamase enzyme inhibition (substrate: Nitrocefin); set-up: species or system Bacillus cereus; conditions: Not Active = under 50% inhibition at 10 µM
Melanocortin receptor 4 = Melanocortin receptor 4 (Homo sapiens, UniProt P32245); assay type: cell membranes, Membrane; conditions: hek293; note: in other assays of this panel Not Active means under 50% inhibition at 10 µM
Adenosine receptor A3 = target: T2, Adenosine receptor A3 (Homo sapiens, UniProt P0DMS8); assay type: cell membranes, CHO-K1, Membrane; conditions: cho-k1; for pIC50: read-out: IC50; for pKi: read-out: Ki
T2 sequence (P0DMS8 whole entry): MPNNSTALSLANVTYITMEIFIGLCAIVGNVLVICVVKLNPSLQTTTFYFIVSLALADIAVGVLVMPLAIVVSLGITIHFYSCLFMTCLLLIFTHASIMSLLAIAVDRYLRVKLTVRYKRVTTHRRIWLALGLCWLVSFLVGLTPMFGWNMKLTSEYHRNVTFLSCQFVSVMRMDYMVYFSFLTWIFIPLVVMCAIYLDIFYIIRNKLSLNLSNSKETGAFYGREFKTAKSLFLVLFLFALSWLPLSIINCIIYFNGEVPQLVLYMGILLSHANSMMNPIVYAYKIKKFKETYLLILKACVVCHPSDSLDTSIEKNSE

[6] = DRUGMATRIX: Calcium Channel Type L, Dihydropyridine radioligand binding (ligand: [3H] Nitrendipine); assay type: cell membranes, Rattus norvegicus, Wistar, Cerebral cortex, Membrane; conditions: Not Active = under 50% inhibition at 10 µM
Cannabinoid receptor 1 = Cannabinoid receptor 1 (Homo sapiens, UniProt P21554); assay type: cell membranes, Membrane; conditions: chem-1; note: in other assays of this panel Not Active means under 50% inhibition at 10 µM
D(3) dopamine receptor = D(3) dopamine receptor (Homo sapiens, UniProt P35462); experiment: DRUGMATRIX: Dopamine D3 radioligand binding (ligand: [3H] Spiperone); assay type: cell membranes, CHO, Membrane; conditions: cho
Cytochrome P450 3A4 = Cytochrome P450 3A4 (Homo sapiens, UniProt P08684); conditions: bti-tn-5b1-4; note: in other assays of this panel Not Active means under 50% inhibition at 10 µM
[7] = DRUGMATRIX: ATPase, Na+/K+ enzyme inhibition (substrate: ATP); assay type: tissue-based, Sus scrofa, Heart; conditions: Not Active = under 50% inhibition at 10 µM

Acetylcholinesterase, sequence (P22303 whole entry): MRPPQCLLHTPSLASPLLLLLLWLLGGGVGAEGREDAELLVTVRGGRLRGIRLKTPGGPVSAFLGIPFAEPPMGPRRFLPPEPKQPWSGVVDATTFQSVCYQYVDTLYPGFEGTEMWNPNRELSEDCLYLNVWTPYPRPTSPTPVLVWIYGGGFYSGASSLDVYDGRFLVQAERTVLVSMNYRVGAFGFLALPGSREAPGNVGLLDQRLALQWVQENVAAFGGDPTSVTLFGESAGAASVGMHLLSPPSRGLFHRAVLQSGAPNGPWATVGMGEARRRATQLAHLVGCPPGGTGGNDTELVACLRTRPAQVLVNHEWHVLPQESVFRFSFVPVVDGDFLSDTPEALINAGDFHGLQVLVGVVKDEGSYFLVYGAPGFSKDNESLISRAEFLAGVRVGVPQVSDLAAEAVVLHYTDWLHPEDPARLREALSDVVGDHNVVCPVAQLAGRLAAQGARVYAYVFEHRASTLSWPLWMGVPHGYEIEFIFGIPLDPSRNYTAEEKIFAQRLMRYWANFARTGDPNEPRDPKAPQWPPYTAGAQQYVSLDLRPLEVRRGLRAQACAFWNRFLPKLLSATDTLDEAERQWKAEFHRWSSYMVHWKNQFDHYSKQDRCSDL
Cannabinoid receptor 1, sequence (P21554 whole entry): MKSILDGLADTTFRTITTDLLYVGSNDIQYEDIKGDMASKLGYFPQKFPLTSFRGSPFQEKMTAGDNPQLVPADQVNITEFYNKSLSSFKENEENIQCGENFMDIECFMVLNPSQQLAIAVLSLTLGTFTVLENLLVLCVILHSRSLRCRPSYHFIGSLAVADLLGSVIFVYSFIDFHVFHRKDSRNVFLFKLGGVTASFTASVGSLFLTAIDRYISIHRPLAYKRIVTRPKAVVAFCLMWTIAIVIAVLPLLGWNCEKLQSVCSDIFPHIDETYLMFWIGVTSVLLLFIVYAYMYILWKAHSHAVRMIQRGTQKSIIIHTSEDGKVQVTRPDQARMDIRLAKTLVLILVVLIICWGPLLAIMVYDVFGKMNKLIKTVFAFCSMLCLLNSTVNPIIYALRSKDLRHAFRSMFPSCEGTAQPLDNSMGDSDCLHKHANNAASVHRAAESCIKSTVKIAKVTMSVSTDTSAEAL
Melanocortin receptor 4, sequence (P32245 whole entry): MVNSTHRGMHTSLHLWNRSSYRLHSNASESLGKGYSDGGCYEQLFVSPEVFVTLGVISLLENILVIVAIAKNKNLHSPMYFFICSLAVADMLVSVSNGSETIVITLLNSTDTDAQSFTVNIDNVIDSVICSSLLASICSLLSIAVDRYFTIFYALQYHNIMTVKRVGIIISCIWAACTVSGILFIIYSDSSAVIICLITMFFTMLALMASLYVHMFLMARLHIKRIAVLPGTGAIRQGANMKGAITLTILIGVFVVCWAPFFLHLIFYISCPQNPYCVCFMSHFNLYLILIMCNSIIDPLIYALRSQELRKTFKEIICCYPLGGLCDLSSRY
Cytochrome P450 3A4, sequence (P08684 whole entry): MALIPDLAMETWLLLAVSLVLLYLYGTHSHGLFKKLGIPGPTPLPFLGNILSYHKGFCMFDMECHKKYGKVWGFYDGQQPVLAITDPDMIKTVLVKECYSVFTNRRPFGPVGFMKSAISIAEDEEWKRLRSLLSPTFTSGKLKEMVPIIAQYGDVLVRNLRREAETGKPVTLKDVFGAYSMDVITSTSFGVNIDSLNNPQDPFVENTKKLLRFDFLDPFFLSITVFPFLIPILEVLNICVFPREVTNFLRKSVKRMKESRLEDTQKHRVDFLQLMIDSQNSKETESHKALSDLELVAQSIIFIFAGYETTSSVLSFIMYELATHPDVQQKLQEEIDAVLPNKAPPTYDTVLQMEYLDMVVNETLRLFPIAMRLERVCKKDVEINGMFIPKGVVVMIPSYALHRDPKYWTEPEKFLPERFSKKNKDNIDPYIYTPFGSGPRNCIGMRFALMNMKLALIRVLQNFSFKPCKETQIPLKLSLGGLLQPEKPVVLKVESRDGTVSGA
Insulin receptor, sequence (P15127 27-759 limits assumed): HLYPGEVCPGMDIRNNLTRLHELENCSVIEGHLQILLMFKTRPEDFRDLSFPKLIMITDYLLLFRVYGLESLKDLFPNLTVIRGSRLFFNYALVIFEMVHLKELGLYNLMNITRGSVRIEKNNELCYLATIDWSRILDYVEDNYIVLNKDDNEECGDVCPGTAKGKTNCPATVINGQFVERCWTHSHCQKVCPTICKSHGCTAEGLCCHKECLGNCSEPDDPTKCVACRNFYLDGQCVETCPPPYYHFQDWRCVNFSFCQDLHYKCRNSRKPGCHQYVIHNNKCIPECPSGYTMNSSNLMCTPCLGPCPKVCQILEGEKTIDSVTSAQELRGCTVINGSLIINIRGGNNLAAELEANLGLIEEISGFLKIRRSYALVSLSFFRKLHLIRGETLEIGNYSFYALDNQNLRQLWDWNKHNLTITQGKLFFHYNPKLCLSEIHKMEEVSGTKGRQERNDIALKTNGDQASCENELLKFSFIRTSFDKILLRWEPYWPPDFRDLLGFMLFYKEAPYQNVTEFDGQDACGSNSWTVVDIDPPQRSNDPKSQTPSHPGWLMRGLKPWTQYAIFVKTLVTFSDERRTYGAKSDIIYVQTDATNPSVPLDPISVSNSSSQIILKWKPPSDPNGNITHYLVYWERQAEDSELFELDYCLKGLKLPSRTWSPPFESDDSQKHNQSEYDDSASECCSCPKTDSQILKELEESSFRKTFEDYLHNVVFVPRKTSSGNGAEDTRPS
Insulin receptor, sequence (P15127 764-1383 limits assumed): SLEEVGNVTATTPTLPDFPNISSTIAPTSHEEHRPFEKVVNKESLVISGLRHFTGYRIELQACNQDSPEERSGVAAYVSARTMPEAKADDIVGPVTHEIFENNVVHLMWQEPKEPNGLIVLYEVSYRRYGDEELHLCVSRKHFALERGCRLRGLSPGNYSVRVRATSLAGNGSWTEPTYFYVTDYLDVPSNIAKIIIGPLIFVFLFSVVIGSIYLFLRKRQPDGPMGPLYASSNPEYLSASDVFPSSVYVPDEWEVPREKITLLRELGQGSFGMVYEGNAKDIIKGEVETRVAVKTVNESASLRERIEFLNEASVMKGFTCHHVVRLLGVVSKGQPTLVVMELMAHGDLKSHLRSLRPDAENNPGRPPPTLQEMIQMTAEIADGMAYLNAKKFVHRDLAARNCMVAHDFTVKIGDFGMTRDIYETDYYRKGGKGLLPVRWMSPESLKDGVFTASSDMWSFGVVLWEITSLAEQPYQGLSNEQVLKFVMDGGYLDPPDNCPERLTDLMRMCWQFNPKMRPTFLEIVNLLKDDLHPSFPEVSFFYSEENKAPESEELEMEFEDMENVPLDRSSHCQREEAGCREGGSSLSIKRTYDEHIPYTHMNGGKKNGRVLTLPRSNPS
Substance-P receptor, sequence (P25103 whole entry): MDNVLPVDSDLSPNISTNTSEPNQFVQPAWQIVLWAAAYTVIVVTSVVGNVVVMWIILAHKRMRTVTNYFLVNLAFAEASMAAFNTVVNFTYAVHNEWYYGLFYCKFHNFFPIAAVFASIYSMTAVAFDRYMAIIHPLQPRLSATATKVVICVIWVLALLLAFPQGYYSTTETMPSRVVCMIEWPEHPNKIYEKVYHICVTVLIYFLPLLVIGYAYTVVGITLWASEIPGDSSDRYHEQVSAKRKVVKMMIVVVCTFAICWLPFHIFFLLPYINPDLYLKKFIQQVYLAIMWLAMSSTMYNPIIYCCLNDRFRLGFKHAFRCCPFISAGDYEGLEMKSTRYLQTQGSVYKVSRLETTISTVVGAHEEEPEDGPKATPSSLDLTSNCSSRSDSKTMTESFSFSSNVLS
D(3) dopamine receptor, sequence (P35462 whole entry): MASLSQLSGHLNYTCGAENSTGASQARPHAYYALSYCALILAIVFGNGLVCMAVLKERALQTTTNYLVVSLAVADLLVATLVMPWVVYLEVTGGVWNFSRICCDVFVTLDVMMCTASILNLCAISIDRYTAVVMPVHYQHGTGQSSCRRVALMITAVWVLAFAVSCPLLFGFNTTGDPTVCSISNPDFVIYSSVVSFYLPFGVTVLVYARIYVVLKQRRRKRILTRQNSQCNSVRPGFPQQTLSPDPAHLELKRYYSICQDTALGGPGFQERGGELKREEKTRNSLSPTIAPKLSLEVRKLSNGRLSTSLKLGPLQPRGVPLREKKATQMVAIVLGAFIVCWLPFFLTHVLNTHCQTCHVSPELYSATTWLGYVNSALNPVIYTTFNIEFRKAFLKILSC
Matrix metalloproteinase-9, sequence (P14780 whole entry): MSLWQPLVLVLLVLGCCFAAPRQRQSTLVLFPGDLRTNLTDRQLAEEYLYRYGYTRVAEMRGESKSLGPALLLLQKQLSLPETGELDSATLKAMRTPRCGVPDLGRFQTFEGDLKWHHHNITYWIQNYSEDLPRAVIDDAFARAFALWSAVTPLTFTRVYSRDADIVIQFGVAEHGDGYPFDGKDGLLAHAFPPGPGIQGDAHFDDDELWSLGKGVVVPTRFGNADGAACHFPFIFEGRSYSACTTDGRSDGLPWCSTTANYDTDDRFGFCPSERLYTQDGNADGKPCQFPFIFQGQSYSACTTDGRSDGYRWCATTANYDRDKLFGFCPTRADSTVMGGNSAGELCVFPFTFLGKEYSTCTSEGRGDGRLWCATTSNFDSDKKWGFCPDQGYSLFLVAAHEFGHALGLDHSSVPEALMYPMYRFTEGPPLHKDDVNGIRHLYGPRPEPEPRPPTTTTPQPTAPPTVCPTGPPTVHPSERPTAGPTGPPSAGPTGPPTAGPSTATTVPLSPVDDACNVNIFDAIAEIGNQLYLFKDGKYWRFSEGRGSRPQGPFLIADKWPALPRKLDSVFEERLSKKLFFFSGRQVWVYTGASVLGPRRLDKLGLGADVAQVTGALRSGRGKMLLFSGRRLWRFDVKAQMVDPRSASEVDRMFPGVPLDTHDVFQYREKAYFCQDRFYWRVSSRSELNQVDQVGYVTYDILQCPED

| Molecule | IC50 (Insulin receptor) | IC50 [1] | Ki [1] | IC50 (Substance-P receptor) | IC50 [2] | IC50 [3] | IC50 [4] | Ki [4] | IC50 (Acetylcholinesterase) | IC50 [5] | Ki [5] | IC50 (Melanocortin receptor 4) | IC50 [6] | Ki [6] | IC50 (Cannabinoid receptor 1) | IC50 (D(3) dopamine receptor) | IC50 (Cytochrome P450 3A4) | Ki (Cytochrome P450 3A4) | IC50 [7] | Ki [7] | also measured |
| --- | --- | --- | --- | --- | --- | --- | --- | --- | --- | --- | --- | --- | --- | --- | --- | --- | --- | --- | --- | --- | --- |
| CCCc1cc(=O)[nH]c(=S)[nH]1 [PROPYLTHIOURACIL] | Not Active | Not Active | Not Active | Not Active | Not Active | Not Active | Not Active | Not Active | Not Active | Not Active | Not Active | Not Active | Not Active | Not Active | Not Active | Not Active | Not Active | Not Active | Not Active | Not Active | IC50 (Adenosine receptor A3): Not Active |
| COc1ccc(CN(CCN(C)C)c2ccccn2)cc1 [PYRILAMINE] | Not Active | Not Active | Not Active | Not Active | Not Active | Not Active | Not Active | Not Active | Not Active | Not Active | Not Active | Not Active | Not Active | Not Active | Not Active | Not Active | Not Active | Not Active | Not Active | Not Active | IC50 (Adenosine receptor A3): Not Active |
| CARBOPLATIN | Not Active | Not Active | Not Active | Not Active | Not Active | Not Active | Not Active | Not Active | Not Active | Not Active | Not Active | Not Active | Not Active | Not Active | Not Active | Not Active | Not Active | Not Active | Not Active | Not Active | Ki (Insulin receptor): Not Active; Ki (Substance-P receptor): Not Active; Ki [2]: Not Active; Ki [3]: Not Active; Ki (Acetylcholinesterase): Not Active; Ki (Melanocortin receptor 4): Not Active; IC50 (Adenosine receptor A3): Not Active; Ki (Adenosine receptor A3): Not Active; Ki (Cannabinoid receptor 1): Not Active; Ki (D(3) dopamine receptor): Not Active |
| CISPLATIN | Not Active | Not Active | Not Active | Not Active | Not Active | Not Active | Not Active | Not Active | Not Active | Not Active | Not Active | Not Active | Not Active | Not Active | Not Active | Not Active | Not Active | Not Active |  |  | Ki (Insulin receptor): Not Active; Ki (Substance-P receptor): Not Active; Ki [2]: Not Active; Ki [3]: Not Active; Ki (Acetylcholinesterase): Not Active; Ki (Melanocortin receptor 4): Not Active; pIC50 (Adenosine receptor A3): 5.37; pKi (Adenosine receptor A3): 5.62; Ki (Cannabinoid receptor 1): Not Active; Ki (D(3) dopamine receptor): Not Active; pIC50 ([7]; read-out: IC50): 5.03 |
| GOLD SODIUM THIOMALATE | Not Active | Not Active | Not Active | Not Active | Not Active | Not Active | Not Active | Not Active | Not Active | Not Active | Not Active | Not Active | Not Active | Not Active | Not Active | Not Active | Not Active | Not Active | Not Active | Not Active | Ki (Insulin receptor): Not Active; Ki (Substance-P receptor): Not Active; Ki [2]: Not Active; Ki [3]: Not Active; Ki (Acetylcholinesterase): Not Active; Ki (Melanocortin receptor 4): Not Active; pIC50 (Adenosine receptor A3): 5.83; pKi (Adenosine receptor A3): 6.07; Ki (Cannabinoid receptor 1): Not Active; Ki (D(3) dopamine receptor): Not Active |
| OXALIPLATIN | Not Active | Not Active | Not Active | Not Active | Not Active | Not Active | Not Active | Not Active | Not Active | Not Active | Not Active | Not Active | Not Active | Not Active | Not Active | Not Active | Not Active | Not Active | Not Active | Not Active | Ki (Insulin receptor): Not Active; Ki (Substance-P receptor): Not Active; Ki [2]: Not Active; Ki [3]: Not Active; Ki (Acetylcholinesterase): Not Active; Ki (Melanocortin receptor 4): Not Active; IC50 (Adenosine receptor A3): Not Active; Ki (Adenosine receptor A3): Not Active; Ki (Cannabinoid receptor 1): Not Active; Ki (D(3) dopamine receptor): Not Active |
